Assay results as given in ChEMBL document CHEMBL5625204, “Synthesis and pharmacodynamic evaluation of naphthalene derivatives against influenza A virus in vitro and in vivo” (Eur J Med Chem, 2023).
Active and inactive are the calls of the source. The rule behind the calls is not given here.

Key:
Influenza A virus [1] = test: Antiviral activity against Influenza A virus H1N1 (A/Weiss/43)-infected in BALB/c mouse assessed as reduction in lung tissue damage administered intranasally for 4 to 6 days starting from 3 hrs post-viral infection; type: functional, organism-based; conditions: dose 25-100 mg/kg/day, route nas, time 4-6 day
Erythrocyte = test: Inhibition of Hemagglutinin1 in Influenza A virus assessed as inhibition of virus-induced hemagglutination at 7.81 to 250 uM pretreated with virus for 30 mins followed by chicken RBC addition and measured after 1 hr; type: cell-based; conditions: dose 7.81-250 µM, time 90.0 min
Influenza A virus [2] = test: Antiviral activity against Influenza A virus H1N1 (A/Weiss/43) infected in MDCK cells assessed as reduction of viral replication at 50 uM treated for 2 to 4 hrs after viral infection and measured after 72 hrs by MTT method; type: functional, organism-based; conditions: time 74-76 hrs
[3] = Toxicity in BALB/c mouse infected with Influenza A virus H1N1 (A/Weiss/43) assessed as liver pathological changes at 25 to 100 mg/kg/day administered intranasally for 6 days starting from 3 hrs post-viral infection by Hematoxylin-Eosin staining based analysis; type: organism-based; conditions: in vivo, inhaled_or_intranasal, 144 h, dose 25-100 mg/kg/day, time 6 day
Influenza A virus [4] = test: Antiviral activity against Influenza A virus H1N1 (A/Weiss/43) infected in MDCK cells assessed as reduction of viral replication treated for 72 hrs after viral adsorption by TCID50 method; type: functional, organism-based
Influenza A virus [5] = test: Antiviral activity against Influenza A virus H1N1 (A/Weiss/43)-infected in BALB/c mouse assessed as reduction in viral M mRNA expression in lungs at 25 to 100 mg/kg/day administered intranasally for 2 to 6 days starting from 3 hrs post-viral infection by qRT-PCR analysis; type: functional, organism-based; conditions: dose 25-100 mg/kg/day, route nas, time 2-6 day
Influenza A virus [6] = test: Antiviral activity against Influenza A virus H1N1 (A/Weiss/43)-infected in BALB/c mouse assessed as reduction in viral NP mRNA expression in lungs at 25 to 100 mg/kg/day administered intranasally for 2 to 6 days starting from 3 hrs post-viral infection by qRT-PCR analysis; type: functional, organism-based; conditions: dose 25-100 mg/kg/day, route nas, time 2-6 day
Influenza A virus [7] = test: Antiviral activity against Influenza A virus H1N1 (A/Weiss/43) infected in MDCK cells assessed as reduction in cell pathological changes at 25 to 50 uM by microscopic analysis; type: functional, organism-based; conditions: dose 25-50 µM
Influenza A virus [8] = test: Antiviral activity against Influenza A virus H1N1 (A/Weiss/43)-infected in BALB/c mouse assessed as reduction in pulmonary inflammation at 25 to 100 mg/kg/day administered intranasally for 6 days starting from 3 hrs post-viral infection by Hematoxylin-Eosin staining based analysis; type: functional, organism-based; conditions: dose 25-100 mg/kg/day, route nas, time 6.0 day
Influenza A virus [9] = test: Antiviral activity against Influenza A virus H1N1 (A/Virginia/ATCC2/2009) infected in MDCK cells assessed as reduction of viral replication incubated for 72 hrs by TCID50 method; type: functional, organism-based
Influenza A virus [10] = test: (§1) Antiviral activity against Influenza A virus H1N1 (A/Weiss/43)-infected in dog MDCK cells assessed as reduction in oxidative stress by measuring proportion of normal cells at 25 uM treated at 2 hrs post-infection and measured after 36 hrs by DCFH-DA staining based flow cytometry (reference value: 69.4%); type: functional; design: scale not given: the % may be the effect or the level left
Influenza A virus [11] = test: Antiviral activity against Influenza A virus H1N1 (A/Weiss/43)-infected in dog MDCK cells assessed as reduction in oxidative stress by measuring proportion of cells with excessive ROS accumulation at 25 uM treated at 2 hrs post-infection and measured after 36 hrs by DCFH-DA staining based flow cytometry (reference value: 30.6%); type: functional; design: scale not given: the % may be the effect or the level left
Influenza A virus [12] = test: as §1, with “50” for “25”; type: functional; design: scale not given: the % may be the effect or the level left
Influenza A virus [13] = test: Antiviral activity against Influenza A virus H1N1 infected in human A549 cells assessed as decrease in apoptosis by measuring decrease in Bax to Bcl-2 ratio at 25 to 50 uM measured after 24 hrs by western blot analysis; type: functional, organism-based; conditions: dose 25-50 µM
Influenza A virus [14] = test: Antiviral activity against Influenza A virus H1N1 infected in dog MDCK cells assessed as decrease in apoptosis by measuring proportion of viable cells at 25 uM measured after 72 hrs by AnnexinV-FITC/PI staining based flow cytometry (reference value: 62.9%); type: functional
Influenza A virus [15] = test: Antiviral activity against Influenza A virus H1N1 infected in dog MDCK cells assessed as decrease in apoptosis by measuring proportion of early apoptotic cells at 50 uM measured after 72 hrs by AnnexinV-FITC/PI staining based flow cytometry (reference value: 24.3%); type: functional; design: scale not given: the % may be the effect or the level left
[16] = Toxicity in dog MDCK cells assessed as proportion of necrotic cells at 50 uM measured after 72 hrs by AnnexinV-FITC/PI staining based flow cytometry (reference value: 1.4%); type: cell-based, Canis lupus familiaris
Influenza A virus [17] = test: Antiviral activity against Influenza A virus H1N1 infected in human A549 cells assessed as decrease in apoptosis by measuring decrease in cleaved caspase-7 protein expression at 25 to 50 uM measured after 24 hrs by western blot analysis; type: functional, organism-based; conditions: dose 25-50 µM
Influenza A virus [18] = test: Antiviral activity against Influenza A virus H1N1 infected in human A549 cells assessed as decrease in apoptosis by measuring decrease in cleaved caspase-9 protein expression at 25 to 50 uM measured after 24 hrs by western blot analysis; type: functional, organism-based; conditions: dose 25-50 µM
Influenza A virus [19] = test: Antiviral activity against Influenza A virus H1N1 infected in human A549 cells assessed as decrease in cytokine gene expression by measuring decrease in IL-8 gene expression at 25 to 50 uM measured after 24 hrs by qRT-PCR analysis; type: functional, organism-based; conditions: dose 25-50 µM
Influenza A virus [20] = test: Antiviral activity against Influenza A virus H1N1 (A/Weiss/43)-infected in BALB/c mouse assessed as reduction in Mx1 gene expression in lungs at 25 to 100 mg/kg/day administered intranasally for 6 days starting from 3 hrs post-viral infection by qRT-PCR analysis; type: functional, organism-based; conditions: dose 25-100 mg/kg/day, route nas, time 6.0 day
Influenza A virus [21] = test: Antiviral activity against Influenza A virus H1N1 (A/Weiss/43)-infected in BALB/c mouse assessed as reduction in RIG-1 gene expression in lungs at 25 to 100 mg/kg/day administered intranasally for 6 days starting from 3 hrs post-viral infection by qRT-PCR analysis; type: functional, organism-based; conditions: dose 25-100 mg/kg/day, route nas, time 6.0 day
Influenza A virus [22] = test: Antiviral activity against Influenza A virus H1N1 (A/Weiss/43)-infected in BALB/c mouse assessed as reduction in TLR-7 gene expression in lungs at 25 to 100 mg/kg/day administered intranasally for 6 days starting from 3 hrs post-viral infection by qRT-PCR analysis; type: functional, organism-based; conditions: dose 25-100 mg/kg/day, route nas, time 6.0 day
Influenza A virus [23] = test: Antiviral activity against Influenza A virus H1N1 (A/Weiss/43)-infected in BALB/c mouse assessed as reduction in OAS1 gene expression in lungs at 25 to 100 mg/kg/day administered intranasally for 6 days starting from 3 hrs post-viral infection by qRT-PCR analysis; type: functional, organism-based; conditions: dose 25-100 mg/kg/day, route nas, time 6.0 day
Influenza A virus [24] = test: Antiviral activity against Influenza A virus H1N1 (A/Weiss/43)-infected in BALB/c mouse assessed as reduction in TNF-alpha gene expression in lungs at 25 to 100 mg/kg/day administered intranasally for 6 days starting from 3 hrs post-viral infection by qRT-PCR analysis; type: functional, organism-based; conditions: dose 25-100 mg/kg/day, route nas, time 6.0 day
Influenza A virus [25] = test: Antiviral activity against Influenza A virus H1N1 (A/Weiss/43)-infected in BALB/c mouse assessed as reduction in IFN-beta gene expression in lungs at 25 to 100 mg/kg/day administered intranasally for 6 days starting from 3 hrs post-viral infection by qRT-PCR analysis; type: functional, organism-based; conditions: dose 25-100 mg/kg/day, route nas, time 6.0 day

O=[N+]([O-])c1ccc(S(=O)(=O)N(Cc2ccccc2)c2cccc3ccccc23)cc1
Activity (Influenza A virus [1]): Dose-Dependent Effect
inhibition (Erythrocyte): inactive
Activity (Influenza A virus [2]): Active
Activity [3]: Non-Toxic
EC50 (Influenza A virus [4]): 2280 nM
Activity (Influenza A virus [5]): Active
Activity (Influenza A virus [6]): Active
Activity (Influenza A virus [7]): Active
Activity (Influenza A virus [8]): Dose-Dependent Effect
EC50 (Influenza A virus [9]): 3340 nM
Activity (Influenza A virus [10]): 87.7%
Activity (Influenza A virus [11]): 12.3%
Activity (Influenza A virus [12]): 95.3%
inhibition (Influenza A virus [13]): Active
Activity (Influenza A virus [14]): 95.4%
Activity (Influenza A virus [15]): 2.93%
Activity [16]: 0.82%
inhibition (Influenza A virus [17]): Active
inhibition (Influenza A virus [18]): Active
inhibition (Influenza A virus [19]): Active
Activity (Influenza A virus [20]): Active
Activity (Influenza A virus [21]): Active
Activity (Influenza A virus [22]): Active
Activity (Influenza A virus [23]): Active
Activity (Influenza A virus [24]): Active
Activity (Influenza A virus [25]): Active
